# Tested on: E2-induced (ER target) genes in MCF7
# Assay: Gene expression analysis by RNA-sequencing in MCF7 with E2 stimulation
# Assay type: cell-based, human
# Details: 24 h
# Method: MCF7 were cultured in hormone deprivation media (with 10% charcoal-stripped FBS) for at least 3 days before assay. Trypsinized cells were seeded in a 12-well plate, stimulated with 1 nM β-estradiol (E2), and treated with/without 1 μM compounds for 24 h. Total RNA was extracted using the TRIzol reagent according to the manufacturer’s protocol. RNA purity and quantification were evaluated using the NanoDrop 2000 spectrophotometer (Thermo Scientific, USA). RNA integrity was assessed using the Agilent 2100 Bioanalyzer (Agilent Technologies, Santa Clara, CA, USA). Then the libraries were constructed using TruSeq Stranded mRNA LT Sample Prep Kit (Illumina, San Diego, CA, USA) according to the manufacturer’s instructions. The transcriptome sequencing and analysis were conducted by OE Biotech Co., Ltd. (Shanghai, China). The libraries were sequenced on an Illumina HiSeq X Ten platform and 150 bp paired-end reads were generated. […] Raw data (raw reads) of FASTq format were firstly processed using Trimmomatic and the low-quality reads were removed to obtain the clean reads. […] The clean reads were mapped to the human genome (GRCh38) using HISAT2 [27]. FPKM [28] of each gene was calculated using Cufflinks, and the read counts of each gene were obtained by HTSeqcount. Differential expression analysis was performed using the DESeq (2012) R package.
# MCF7 with hormone-deprived pre-treatment were administrated ER ligands or not present with 1 nM E2 stimulation for 24 h incubation in a 12-well plate. Total mRNA was isolated from treated cells and sequenced on an Illumina HiSeq X Ten platform. FPKM of each gene was calculated using Cufflinks and Differential expression genes analysis by using the DESeq (2012) R package. […] T47D EFM-19 and HCC1500 cells were grown in RPMI media supplemented with 10% charcoal-stripped FBS for 14 days and then treated with ER antagonist (1 μM) or DMSO in the presence E2 (1nM) stimulation for 24 h before RNA isolation and gene expression analysis as described in methods. […] The uteruses were harvested 24 h after the final doses and stained by toluidine blue. Endometrial height was assessed from the basement membrane to the luminal border (scale bar in green lines: 200 μm), Arrows indicate the uterine epithelium (e).
smiles,measurement,setting,value
CC/C(=C(\c1ccc(O)cc1)c1ccc(OCCN(C)C)cc1)c1ccccc1 [4-OH-tamoxifen],"percentage of E2-induced genes suppressed, Relative to 1 nM E2 Down%","MCF7, 1 nM E2 + 1 μM compound",59.1%
same,"percentage of genes upregulated, Relative to 1 nM E2 Up%","MCF7, 1 nM E2 + 1 μM compound, foldchange > twofold",5.8%
same,ACTG2 expression,"MCF7, 1 nM E2 ± 1 μM compound",2.33 FPKM
same,ADCY1 expression,"MCF7, 1 nM E2 ± 1 μM compound",19.17 FPKM
same,AGR3 expression,"MCF7, 1 nM E2 ± 1 μM compound",25.86 FPKM
same,AMZ1 expression,"MCF7, 1 nM E2 ± 1 μM compound",3.21 FPKM
same,ANLN expression,"MCF7, 1 nM E2 ± 1 μM compound",22.77 FPKM
same,ARHGAP36 expression,"MCF7, 1 nM E2 ± 1 μM compound",1.42 FPKM
same,ASCL1 expression,"MCF7, 1 nM E2 ± 1 μM compound",2.50 FPKM
same,ASF1B expression,"MCF7, 1 nM E2 ± 1 μM compound",33.57 FPKM
same,ASMTL-2 expression,"MCF7, 1 nM E2 ± 1 μM compound",3.33 FPKM
same,ATAD2 expression,"MCF7, 1 nM E2 ± 1 μM compound",29.15 FPKM
same,ATRNL1 expression,"MCF7, 1 nM E2 ± 1 μM compound",0.29 FPKM
same,AURKB expression,"MCF7, 1 nM E2 ± 1 μM compound",18.53 FPKM
same,BIRC5 expression,"MCF7, 1 nM E2 ± 1 μM compound",26.74 FPKM
same,BLM expression,"MCF7, 1 nM E2 ± 1 μM compound",3.14 FPKM
same,BMPER expression,"MCF7, 1 nM E2 ± 1 μM compound",0.18 FPKM
same,BRCA1 expression,"MCF7, 1 nM E2 ± 1 μM compound",3.58 FPKM
same,BRCA2 expression,"MCF7, 1 nM E2 ± 1 μM compound",2.51 FPKM
same,BRIP1 expression,"MCF7, 1 nM E2 ± 1 μM compound",22.65 FPKM
same,BUB1B expression,"MCF7, 1 nM E2 ± 1 μM compound",9.15 FPKM
same,C1orf226 expression,"MCF7, 1 nM E2 ± 1 μM compound",5.19 FPKM
same,C5AR2 expression,"MCF7, 1 nM E2 ± 1 μM compound",2.33 FPKM
same,CA2 expression,"MCF7, 1 nM E2 ± 1 μM compound",157.09 FPKM
same,CA12 expression,"MCF7, 1 nM E2 ± 1 μM compound",46.02 FPKM
same,CALCR expression,"MCF7, 1 nM E2 ± 1 μM compound",4.03 FPKM
same,CAV1 expression,"MCF7, 1 nM E2 ± 1 μM compound",5.56 FPKM
same,CCN5 expression,"MCF7, 1 nM E2 ± 1 μM compound",29.67 FPKM
same,CCNA2 expression,"MCF7, 1 nM E2 ± 1 μM compound",17.16 FPKM
same,CCNE2 expression,"MCF7, 1 nM E2 ± 1 μM compound",7.22 FPKM
same,CD99-2 expression,"MCF7, 1 nM E2 ± 1 μM compound",0.97 FPKM
same,CDC6 expression,"MCF7, 1 nM E2 ± 1 μM compound",6.08 FPKM
same,CDC25A expression,"MCF7, 1 nM E2 ± 1 μM compound",2.63 FPKM
same,CDC45 expression,"MCF7, 1 nM E2 ± 1 μM compound",5.79 FPKM
same,CDCA3 expression,"MCF7, 1 nM E2 ± 1 μM compound",6.21 FPKM
same,CDCA4 expression,"MCF7, 1 nM E2 ± 1 μM compound",15.28 FPKM
same,CDCA5 expression,"MCF7, 1 nM E2 ± 1 μM compound",13.04 FPKM
same,CDCA7 expression,"MCF7, 1 nM E2 ± 1 μM compound",2.77 FPKM
same,CDH26 expression,"MCF7, 1 nM E2 ± 1 μM compound",0.69 FPKM
same,CDK1 expression,"MCF7, 1 nM E2 ± 1 μM compound",15.34 FPKM
same,CDT1 expression,"MCF7, 1 nM E2 ± 1 μM compound",21.06 FPKM
same,CENPI expression,"MCF7, 1 nM E2 ± 1 μM compound",3.21 FPKM
same,CENPU expression,"MCF7, 1 nM E2 ± 1 μM compound",5.41 FPKM
same,CHAF1B expression,"MCF7, 1 nM E2 ± 1 μM compound",2.31 FPKM
same,CHEK1 expression,"MCF7, 1 nM E2 ± 1 μM compound",2.63 FPKM
same,CKS1B expression,"MCF7, 1 nM E2 ± 1 μM compound",49.15 FPKM
same,CLSPN expression,"MCF7, 1 nM E2 ± 1 μM compound",1.96 FPKM
same,COL12A1 expression,"MCF7, 1 nM E2 ± 1 μM compound",3.75 FPKM
same,CXCL12 expression,"MCF7, 1 nM E2 ± 1 μM compound",3.86 FPKM
same,DDIAS expression,"MCF7, 1 nM E2 ± 1 μM compound",4.48 FPKM
same,DHRSX-2 expression,"MCF7, 1 nM E2 ± 1 μM compound",1.54 FPKM
same,DKK1 expression,"MCF7, 1 nM E2 ± 1 μM compound",41.67 FPKM
same,DNA2 expression,"MCF7, 1 nM E2 ± 1 μM compound",3.39 FPKM
same,DPYSL5 expression,"MCF7, 1 nM E2 ± 1 μM compound",0.63 FPKM
same,DSCC1 expression,"MCF7, 1 nM E2 ± 1 μM compound",4.49 FPKM
same,DTL expression,"MCF7, 1 nM E2 ± 1 μM compound",2.21 FPKM
same,E2F1 expression,"MCF7, 1 nM E2 ± 1 μM compound",8.56 FPKM
same,E2F2 expression,"MCF7, 1 nM E2 ± 1 μM compound",1.96 FPKM
same,E2F7 expression,"MCF7, 1 nM E2 ± 1 μM compound",3.12 FPKM
same,E2F8 expression,"MCF7, 1 nM E2 ± 1 μM compound",4.23 FPKM
same,ELOVL2 expression,"MCF7, 1 nM E2 ± 1 μM compound",7.72 FPKM
same,EME1 expression,"MCF7, 1 nM E2 ± 1 μM compound",4.92 FPKM
same,ERCC6L expression,"MCF7, 1 nM E2 ± 1 μM compound",1.82 FPKM
same,ESCO2 expression,"MCF7, 1 nM E2 ± 1 μM compound",2.98 FPKM
same,ESPL1 expression,"MCF7, 1 nM E2 ± 1 μM compound",7.94 FPKM
same,EXO1 expression,"MCF7, 1 nM E2 ± 1 μM compound",3.27 FPKM
same,FAM20A expression,"MCF7, 1 nM E2 ± 1 μM compound",2.46 FPKM
same,FAM111B expression,"MCF7, 1 nM E2 ± 1 μM compound",4.32 FPKM
same,FANCA expression,"MCF7, 1 nM E2 ± 1 μM compound",10.70 FPKM
same,FANCD2 expression,"MCF7, 1 nM E2 ± 1 μM compound",6.23 FPKM
same,FANCI expression,"MCF7, 1 nM E2 ± 1 μM compound",20.35 FPKM
same,FEN1 expression,"MCF7, 1 nM E2 ± 1 μM compound",31.76 FPKM
same,FIGNL1 expression,"MCF7, 1 nM E2 ± 1 μM compound",2.46 FPKM
same,FKBP4 expression,"MCF7, 1 nM E2 ± 1 μM compound",79.90 FPKM
same,GATA4 expression,"MCF7, 1 nM E2 ± 1 μM compound",0.08 FPKM
same,GFRA1 expression,"MCF7, 1 nM E2 ± 1 μM compound",84.37 FPKM
same,GINS1 expression,"MCF7, 1 nM E2 ± 1 μM compound",11.19 FPKM
same,GINS2 expression,"MCF7, 1 nM E2 ± 1 μM compound",12.84 FPKM
same,GJA1 expression,"MCF7, 1 nM E2 ± 1 μM compound",0.31 FPKM
same,GLA expression,"MCF7, 1 nM E2 ± 1 μM compound",41.63 FPKM
same,GP1BB expression,"MCF7, 1 nM E2 ± 1 μM compound",0.99 FPKM
same,GPR68 expression,"MCF7, 1 nM E2 ± 1 μM compound",0.38 FPKM
same,GPRIN1 expression,"MCF7, 1 nM E2 ± 1 μM compound",4.22 FPKM
same,GREB1 expression,"MCF7, 1 nM E2 ± 1 μM compound",4.76 FPKM
same,H2AX expression,"MCF7, 1 nM E2 ± 1 μM compound",94.16 FPKM
same,HBB expression,"MCF7, 1 nM E2 ± 1 μM compound",2.54 FPKM
same,HELLS expression,"MCF7, 1 nM E2 ± 1 μM compound",3.37 FPKM
same,HEY2 expression,"MCF7, 1 nM E2 ± 1 μM compound",1.93 FPKM
same,HMGB2 expression,"MCF7, 1 nM E2 ± 1 μM compound",125.20 FPKM
same,IGFBP4 expression,"MCF7, 1 nM E2 ± 1 μM compound",56.87 FPKM
same,IGSF1 expression,"MCF7, 1 nM E2 ± 1 μM compound",3.37 FPKM
same,ITGA2B expression,"MCF7, 1 nM E2 ± 1 μM compound",0.44 FPKM
same,KIF11 expression,"MCF7, 1 nM E2 ± 1 μM compound",13.08 FPKM

# — paper PMC10426190 (Breast Cancer Research : BCR, 2023)
